Laboratory results taken from publication PMC3996151, “Safety and pharmacological characterization of the molecular tweezer CLR01 – a broad-spectrum inhibitor of amyloid proteins’ toxicity” (BMC Pharmacology & Toxicology, 2014).

What was measured:
[1] = In vitro dephosphorylation by brain homogenate (inorganic phosphate release); assay type: in vitro ADME, mouse; settings: positive control substrate, 1.5 mg mouse-brain homogenate
Method: Potential dephosphorylation of CLR01 was analyzed by incubating 100 nmol CLR01 with 0.08 units of alkaline phosphatase (ALP; calf intestinal alkaline phosphatase, Promega, Madison, Wisconsin) for 60 min at 60°C. One enzymatic unit is defined as the amount of enzyme required for catalyzing the hydrolysis of 1 μmol of p-nitrophenylphosphate per minute. p-Nitrophenylphosphate disodium salt at 5–50 nmol (Fisher, Waltham, Massachusetts) was used for generation of a standard curve. The amount of inorganic phosphate generated was measured spectrophotometrically using an EnzChek Phosphate Assay kit (Life Technologies, Carlsbad, California) according to the manufacturer’s instructions on a DU-640 spectrophotometer (Beckman Coulter, Brea, California) at λ = 360 nm. Baseline values were subtracted from readings and compared to the standard curve resulting from serial ALP reactions to calculate the amount of inorganic phosphate. Similarly, potential dephosphorylation of CLR01 by brain homogenates was measured. For these experiments, one brain hemisphere was homogenized by sonication in the presence of cOmplete protease-inhibitor cocktail (Roche, Penzberg, Germany). Protein concentration was measured using a BCA Protein Assay Kit (Pierce, Rockford, Illinois). […]

[2] = Solubility in aqueous solutions; assay type: physicochemical

Dephosphorylation by brain homogenate, % of the activity of 0.8 enzymatic units of ALP [1] | Structure (SMILES) | Solubility in aqueous solutions [2]
99 - 130% | O=[N+]([O-])c1ccc(OP(=O)(O)O)cc1 [p-nitrophenylphosphate, reference compound] | 
 | O=P(O)(O)Oc1c2c(c(O)c3c1C1CC3c3cc4c(cc31)C1CC4c3ccccc31)C1CC2c2cc3c(cc21)C1CC3c2ccccc21 [monophosphate metabolite] | soluble at millimolar concentrations
